Assay results taken from US20120093809A1, “USE OF ALKANOYL L-CARNITINE IN COMBINATION WITH CHEMOTHERAPEUTIC AGENTS FOR THE TREATMENT OF NEOPLASMS” (priority 2008, published 2012).

Columns and labels:
NCI-H460 NSCLC = assay: Antitumor activity of cisplatin in combination with acetyl L-carnitine, s.c. xenograft; assay type: in vivo; conditions: cisplatin ip q3-4dx5, alone or with acetyl L-carnitine 200 mg/kg p.o. qdx5/wx4w
Description: (§1) Treatments started three days after tumor injection.
Mice were subdivided (12 mice/group) in the following experimental groups:
Acetyl L-carnitine was administered immediately before the drug given in combination.
(§2) To evaluate the antitumor activity, tumor diameters were measured with a Vernier caliper.
(§3) When tumors reached a volume of 1-2 cm^3, mice were sacrificed by cervical dislocation. Body weight recording was carried out through the study and mortality was noted.

[1] = tested on: NCI-H460 non-small cell lung carcinoma; assay: Antitumor activity of cisplatin in combination with L-carnitine, s.c. xenograft; assay type: in vivo; conditions: cisplatin 4 mg/kg ip, alone or with L-carnitine 200 mg/kg po
Description: as §1, §2, §3

[2] = tested on: A549 non-small cell lung carcinoma; assay: Antitumor activity of acetyl L-carnitine in combination with cisplatin, s.c. xenograft; assay type: in vivo
Description: Treatments started six days after cancer injection.
(§4) When tumors reached a volume of about 1 cm3, mice were sacrificed by cervical dislocation.
(§5) Body weight recording was carried out through the study.

[3] = tested on: NCI-H1650 non-small cell lung carcinoma; assay: as above; assay type: in vivo
Description: Treatments started eleven days after cancer injection.
as §4, §5

[4] = tested on: IGROV-1 ovarian carcinoma; assay type: in vivo, CD1 nude mice; conditions: day +41; cisplatin 4 mg/kg ip, alone or with acetyl L-carnitine 200 mg/kg po
Description: (§6) Treatments started three days after cancer injection.
When tumors reached a volume of about 1-2 cm^3, mice were sacrificed by cervical dislocation.
as §5

[5] = tested on: A2780/Dx multidrug-resistant ovarian carcinoma cells; assay: Antiproliferative activity of cisplatin with and without acetyl L-carnitine, MTT assay; assay type: cell-based; conditions: acetyl L-carnitine 10 mM where combined, 6 days of exposure, 0.1% FBS
Description: (§7) Moreover, the activity was also evaluated on two prostate tumor cell lines with p53 wild-type (LnCaP) or p53 null (PC3). […] The number of surviving cells was finally determined by the tetrazolium salt (MTT) assay, as described by Hansen M B et al. (Re-examination and further development of a precise and rapid dye method for measuring cell growth/cell kill. J. Immunol. Methods 119: 203-10, 1989). […] In this case the statistical comparison was performed by Mann-Whitney test.
(§8) To test the effects of the compounds on cell growth, tumor cells were seeded in 96-well tissue culture plates at approximately 10% confluence and were allowed to attach and recover for at least 24 h. […] Plates were kept at. 37° C. in incubator with 5% CO2 for 2 h for the formation of blu chrystals. The supernatant was removed and 100 μL/well of lysant medium were added. Plates were kept under stirring for 60 min. The survival cell was determined as optical density by a Multiskan spectrofluorimeter at 570 nm.

[6] = tested on: NCI-H460 non-small cell lung carcinoma cells; assay: as above; assay type: cell-based; conditions: acetyl L-carnitine 10 mM where combined, 72H of exposure, 0.1% FBS
Description: as §7, §8

[7] = tested on: LnCaP prostate carcinoma cells (p53 wild-type); assay: as above; assay type: cell-based; conditions: acetyl L-carnitine 10 mM where combined, 6 days of exposure, 0.1% FBS
Description: as §7
(§9) To test the effects of the compounds on cell growth, tumor cells were seeded in 96-well tissue culture plates at approximately 10% confluence and were allowed to attach and recover for at least 24 h. Tumor cells were exposed to compounds for 72 h or 6 days in 0.1% FBS at 37° C., then medium culture was removed and 100 μL/well of medium were added containing 25 μL/well of a solution 5 mg/mL MTT (final 1 mg/mL). Plates were kept at. 37° C. in incubator with 5% CO2 for 2 h for the formation of blu chrystals. The supernatant was removed and 100 μL/well of lysant medium were added. Plates were kept under stirring for 60 min. The survival cell was determined as optical density by a Multiskan spectrofluorimeter at 570 nm.

[8] = tested on: NCI-H1650 non-small cell lung carcinoma cells; assay: as above; assay type: cell-based; conditions: acetyl L-carnitine 10 mM where combined, 6 days of exposure, 0.1% FBS
Description: as §7, §9

[9] = tested on: PC3 prostate carcinoma cells (p53 null); assay: as above; assay type: cell-based; conditions: acetyl L-carnitine 10 mM where combined, 72 h of exposure, 0.1% FBS
Description: as §7, §9

[10] = tested on: SJSA-1 (with amplification of mdm2) osteosarcoma cells; assay: as above; assay type: cell-based; conditions: acetyl L-carnitine 10 mM where combined, 72 h of exposure followed by 72 h of recovery, 0.1% FBS
Description: as §7, §9

[11] = tested on: SW620 colon carcinoma with mutant p53; assay type: in vivo, CD1 nude mice; conditions: day +20; cisplatin 4 mg/kg ip, alone or with acetyl L-carnitine 200 mg/kg po
Description: as §6
When tumors reached a volume of about 1 cm^3, mice were sacrificed by cervical dislocation.
as §5

lung metastases = conditions: cisplatin alone, 6 to 8 mg/kg; cited from earlier work
[12] = cisplatin 4 mg/kg ip, alone or with acetyl L-carnitine 200 mg/kg po
[13] = day +41, cisplatin 4 mg/kg ip, alone or with acetyl L-carnitine 200 mg/kg po

N.N.[Cl][Pt][Cl] [Cisplatin]
LCK (1 cm^3) (NCI-H460 NSCLC; DT = 2.6 days): 0.6
TVI % +31 (NCI-H460 NSCLC; day +31): 41%
TV ± SE +32 ([1]; day +32): 345 ± 90 mm^3
Leth. ([1]; dead/total mice): 0/9
BWL % max ([2]; cisplatin 4 mg/kg ip q3-4d/wx3w, alone or with acetyl L-carnitine 200 mg/kg po qdx5/wx4w): 8%
TV ± SE [2, 12]: 208 ± 55 mm^3
TVI % ± SE [2, 12]: 49 ± 12%
BWL % max ([3]; cisplatin 4 mg/kg ip q3-4d/wx3w, alone or with acetyl L-carnitine 200 mg/kg po qdx5/wx5w): 10%
TV ± SE +41 [3, 13]: 206 ± 32 mm^3
TVI % ± SE +41 [3, 13]: 23 ± 4%
TV ± SE +41 [4]: 231 ± 55 mm^3
TVI % ± SE +41 [4]: 35 ± 8%
IC50 ([5]; IC50±SD of cisplatin): 730 nM
CELL SURVIVAL % ± SE ([5]; cisplatin 625 nM): 62 ± 2.0%
CELL SURVIVAL % ± SE ([5]; cisplatin 1250 nM): 40 ± 1.0%
CELL SURVIVAL % ± SE ([5]; cisplatin 2500 nM): 31 ± 1.0%
CELL SURVIVAL % ± SE ([5]; cisplatin […]): 86 ± 2.0%
IC50 ([6]; IC50±SD of cisplatin): 400 nM
CELL SURVIVAL % ± SE ([6]; cisplatin 39 nM): 96 ± 2.4%
CELL SURVIVAL % ± SE ([6]; cisplatin 78 nM): 93 ± 4.0%
CELL SURVIVAL % ± SE ([6]; cisplatin 312 nM): 61 ± 2.0%
CELL SURVIVAL % ± SE ([6]; cisplatin 625 nM): 39 ± 1.0%
CELL SURVIVAL % ± SE ([6]; cisplatin 1250 nM): 24 ± 0.7%
CELL SURVIVAL % ± SE ([6]; cisplatin […]): 82 ± 2.0%
IC50 ([7]; IC50±SD of cisplatin): 7.8 µM
CELL SURVIVAL % ± SE ([7]; cisplatin 1250 nM): 92 ± 2%
CELL SURVIVAL % ± SE ([7]; cisplatin 2500 nM): 74 ± 5%
CELL SURVIVAL % ± SE ([7]; cisplatin 5000 nM): 67 ± 2%
CELL SURVIVAL % ± SE ([7]; cisplatin 10000 nM): 51 ± 3%
IC50 ([8]; IC50±SD of cisplatin): 1500 nM
CELL SURVIVAL % ± SE ([8]; cisplatin 78 nM): 98 ± 4.0%
CELL SURVIVAL % ± SE ([8]; cisplatin 312 nM): 92 ± 2.0%
CELL SURVIVAL % ± SE ([8]; cisplatin 625 nM): 81 ± 3.0%
CELL SURVIVAL % ± SE ([8]; cisplatin […]): 95 ± 1.0%
IC50 ([9]; IC50±SD of cisplatin): 4.63 µM
CELL SURVIVAL % ± SE ([9]; cisplatin 625 nM): 97%
CELL SURVIVAL % ± SE ([9]; cisplatin 1250 nM): 89%
CELL SURVIVAL % ± SE ([9]; cisplatin 2500 nM): 76%
CELL SURVIVAL % ± SE ([9]; cisplatin 5000 nM): 52%
CELL SURVIVAL % ± SE ([9]; cisplatin 10000 nM): 26%
IC50 ([10]; IC50±SD of cisplatin): 3.2 µM
CELL SURVIVAL % ± SE ([10]; cisplatin 312 nM): 100 ± 3.0%
CELL SURVIVAL % ± SE ([10]; cisplatin 625 nM): 90 ± 6.0%
CELL SURVIVAL % ± SE ([10]; cisplatin 1250 nM): 90 ± 2.0%
CELL SURVIVAL % ± SE ([10]; cisplatin 2500 nM): 64 ± 2.0%
CELL SURVIVAL % ± SE ([10]; cisplatin 5000 nM): 35 ± 1.0%
TV ± SE +20 [11]: 244 ± 45 mm^3
TVI % ± SE +20 [11]: 55 ± 10%
number of lung metastases (lung metastases): significantly reduced the number of lung metastases
